According to patent US20020137929A1, “1 - (3-heterocyclylphenyl) isothiourea, -isourea, -guanidine and -amidine herbicidal agents” (Intellectual Property Department, BASF Aktiengesellschaft, priority 1998, published 2002):

How the values were obtained:
AMBEL (Ragweed, Common) = experiment: Postemergence herbicidal evaluation; format: in vivo, Ambrosia artemisifolia; conditions: for AMBEL herbicidal rating: postemergence
How it was run: (§1)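 ~2-wk seedlings; postemergence spray, 40 psi; vehicle 1:1 acetone:water + 0.5% Tween 20; rate ≈0.0156–0.500 kg/ha; greenhouse hold; scored 4–5 wk after treatment, 0–9 scale vs control; repeat tests averaged.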

CASOB (Sicklepod) [1] = experiment: Postemergence herbicidal evaluation; format: in vivo, Cassia obtusifolia; conditions: for CASOB herbicidal rating: postemergence
How it was run: as §1

GALAP (Galium) = experiment: Postemergence herbicidal evaluation; format: in vivo, Galium aparine; conditions: for GALAP herbicidal rating: postemergence
How it was run: as §1

[2] = test system: IPOHE (Morningglory, Ivyleaf); experiment: Postemergence herbicidal evaluation; format: in vivo, Ipomoea hederacea; conditions: for IPOHE herbicidal rating: postemergence
How it was run: as §1

ABUTH (Velvetleaf) = experiment: Preemergence herbicidal evaluation; format: in vivo, Abutilon theophrasti; conditions: rated 4-5 weeks after treatment
How it was run: (§2)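 Herbicidal effect scored visually, 0-9, at 4 to 5 weeks against a control; compound applied preemergence by aqueous acetone spray to seeded soil at about 0.0156 to 0.500 kg/ha.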

CASOB (Sicklepod) [3] = experiment: Preemergence herbicidal evaluation; format: in vivo, Cassia obtusifolia; conditions: rated 4-5 weeks after treatment
How it was run: as §2

[4] = test system: IPOHE (Morningglory, Ivyleaf); experiment: Preemergence herbicidal evaluation; format: in vivo, Ipomoea hederacea; conditions: rated 4-5 weeks after treatment
How it was run: as §2

ECHCG (Barnyardgrass) = experiment: Preemergence herbicidal evaluation; format: in vivo, Echinochloa crus-galli; conditions: rated 4-5 weeks after treatment
How it was run: as §2

[5] = test system: GLXMAW (Soybean, Williams); experiment: Preemergence herbicidal evaluation; format: in vivo, Glycine max, (L.) Merr. cv Williams; conditions: rated 4-5 weeks after treatment
How it was run: as §2

[6] = test system: TRZAWR (Wheat, Winter, cv Riband); experiment: Preemergence herbicidal evaluation; format: in vivo, Triticum aestivum; conditions: rated 4-5 weeks after treatment
How it was run: as §2

ZEAMX (Corn, Field) = experiment: Preemergence herbicidal evaluation; format: in vivo, Zea mays; conditions: rated 4-5 weeks after treatment
How it was run: as §2

MOOVA (Monochoria) = experiment: Preemergence weed control under flooded paddy conditions; format: in vivo, Monochoria vaginalis; conditions: rated 3-4 weeks after treatment
How it was run: (§3)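 Greenhouse paddy assay. Acetone/water (50/50 v/v) solutions dosed into flood water, equivalent to about 0.0313 to 0.500 kg/ha active ingredient, over seeds planted 0.5 cm deep in silt loam. Score: 0-9 visual, based on stand, vigor, malformation, size and chlorosis, 3 to 4 weeks after treatment.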

[7] = test system: SAGPY (Arrowhead (Pygmaea)); experiment: as above; format: in vivo, Sagittaria pygmaea; conditions: rated 3-4 weeks after treatment
How it was run: as §3

CYPIR (Rice Flatsedge) = experiment: Postemergence weed control under flooded paddy conditions; format: in vivo, Cyperus iria; conditions: postemergence weeds
How it was run: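 Injury ratings (0–9 scale covering stand, vigor, malformation, size, chlorosis and overall appearance versus control) were made three to four weeks after treatment. Test material, about 0.0313 to 0.500 kg/ha a.i. in 50/50 v/v aqueous/acetone, was added to flood water 1.5 to 3 cm deep over 3 to 5 cm weeds and 1.5 to 2.5 leaf rice.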

## C#CCOC(=O)CC1SC(=Nc2cc(-n3c(=O)cc(C(F)(F)F)n(C)c3=O)c(F)cc2Cl)N(CC=C)C1=O (centres unmarked) [Compound 67, 2-Propynyl 3-allyl-2-{{2-chloro-5-[3,6-dihydro-3-methyl-2,6-dioxo-4-(trifluoromethyl)-1(2H)-pyrimidinyl]-4-fluorophenyl}imino}-4-oxo-5-thiazolidineacetate]
AMBEL (Ragweed, Common); rate 0.0158 kg/ha
  AMBEL herbicidal rating: 6.0
AMBEL (Ragweed, Common); rate 0.0315 kg/ha
  AMBEL herbicidal rating: 7.0
AMBEL (Ragweed, Common); rate 0.0630 kg/ha
  AMBEL herbicidal rating: 7.0
CASOB (Sicklepod) [1]; rate 0.0158 kg/ha
  CASOB herbicidal rating: 0.0
CASOB (Sicklepod) [1]; rate 0.0315 kg/ha
  CASOB herbicidal rating: 2.0
CASOB (Sicklepod) [1]; rate 0.0630 kg/ha
  CASOB herbicidal rating: 3.0
GALAP (Galium); rate 0.0158 kg/ha
  GALAP herbicidal rating: 2.9
GALAP (Galium); rate 0.0315 kg/ha
  GALAP herbicidal rating: 6.0
GALAP (Galium); rate 0.0630 kg/ha
  GALAP herbicidal rating: 5.0
[2]; rate 0.0158 kg/ha
  IPOHE herbicidal rating: 9.0
[2]; rate 0.0315 kg/ha
  IPOHE herbicidal rating: 9.0
[2]; rate 0.0630 kg/ha
  IPOHE herbicidal rating: 9.0
ABUTH (Velvetleaf); rate 0.0156 kg/ha
  Preemergence herbicidal rating ABUTH: 1.0
ABUTH (Velvetleaf); rate 0.0313 kg/ha
  Preemergence herbicidal rating ABUTH: 9.0
ABUTH (Velvetleaf); rate 0.0625 kg/ha
  Preemergence herbicidal rating ABUTH: 9.0
ABUTH (Velvetleaf); rate 0.1250 kg/ha
  Preemergence herbicidal rating ABUTH: 7.0
ABUTH (Velvetleaf); rate 0.2500 kg/ha
  Preemergence herbicidal rating ABUTH: 9.0
CASOB (Sicklepod) [3]; rate 0.0156 kg/ha
  Preemergence herbicidal rating CASOB: 0.0
CASOB (Sicklepod) [3]; rate 0.0313 kg/ha
  Preemergence herbicidal rating CASOB: 0.0
CASOB (Sicklepod) [3]; rate 0.0625 kg/ha
  Preemergence herbicidal rating CASOB: 0.0
CASOB (Sicklepod) [3]; rate 0.1250 kg/ha
  Preemergence herbicidal rating CASOB: 2.0
CASOB (Sicklepod) [3]; rate 0.2500 kg/ha
  Preemergence herbicidal rating CASOB: 2.0
[4]; rate 0.0156 kg/ha
  Preemergence herbicidal rating IPOHE: 0.0
[4]; rate 0.0313 kg/ha
  Preemergence herbicidal rating IPOHE: 0.0
[4]; rate 0.0625 kg/ha
  Preemergence herbicidal rating IPOHE: 2.0
[4]; rate 0.1250 kg/ha
  Preemergence herbicidal rating IPOHE: 3.0
[4]; rate 0.2500 kg/ha
  Preemergence herbicidal rating IPOHE: 6.0
ECHCG (Barnyardgrass); rate 0.0156 kg/ha
  Preemergence herbicidal rating ECHCG: 0.0
ECHCG (Barnyardgrass); rate 0.0313 kg/ha
  Preemergence herbicidal rating ECHCG: 0.0
ECHCG (Barnyardgrass); rate 0.0625 kg/ha
  Preemergence herbicidal rating ECHCG: 0.0
ECHCG (Barnyardgrass); rate 0.1250 kg/ha
  Preemergence herbicidal rating ECHCG: 1.0
ECHCG (Barnyardgrass); rate 0.2500 kg/ha
  Preemergence herbicidal rating ECHCG: 1.0
[5]; rate 0.0156 kg/ha
  Preemergence herbicidal rating GLXMAW: 0.0
[5]; rate 0.0313 kg/ha
  Preemergence herbicidal rating GLXMAW: 1.0
[5]; rate 0.0625 kg/ha
  Preemergence herbicidal rating GLXMAW: 2.0
[5]; rate 0.1250 kg/ha
  Preemergence herbicidal rating GLXMAW: 2.0
[5]; rate 0.2500 kg/ha
  Preemergence herbicidal rating GLXMAW: 2.0
[6]; rate 0.0156 kg/ha
  Preemergence herbicidal rating TRZAWR: 0.0
[6]; rate 0.0313 kg/ha
  Preemergence herbicidal rating TRZAWR: 0.0
[6]; rate 0.0625 kg/ha
  Preemergence herbicidal rating TRZAWR: 0.0
[6]; rate 0.1250 kg/ha
  Preemergence herbicidal rating TRZAWR: 1.0
[6]; rate 0.2500 kg/ha
  Preemergence herbicidal rating TRZAWR: 1.0
ZEAMX (Corn, Field); rate 0.0156 kg/ha
  Preemergence herbicidal rating ZEAMX: 0.0
ZEAMX (Corn, Field); rate 0.0313 kg/ha
  Preemergence herbicidal rating ZEAMX: 0.0
ZEAMX (Corn, Field); rate 0.0625 kg/ha
  Preemergence herbicidal rating ZEAMX: 1.0
ZEAMX (Corn, Field); rate 0.1250 kg/ha
  Preemergence herbicidal rating ZEAMX: 1.0
ZEAMX (Corn, Field); rate 0.2500 kg/ha
  Preemergence herbicidal rating ZEAMX: 1.0
MOOVA (Monochoria); 0.0313 kg/ha
  MOOVA herbicidal effect rating: 9.0
MOOVA (Monochoria); 0.0625 kg/ha
  MOOVA herbicidal effect rating: 9.0
MOOVA (Monochoria); 0.1250 kg/ha
  MOOVA herbicidal effect rating: 9.0
MOOVA (Monochoria); 0.2500 kg/ha
  MOOVA herbicidal effect rating: 9.0
[7]; 0.0313 kg/ha
  SAGPY herbicidal effect rating: 0.0
[7]; 0.0625 kg/ha
  SAGPY herbicidal effect rating: 4.0
[7]; 0.1250 kg/ha
  SAGPY herbicidal effect rating: 4.0
[7]; 0.2500 kg/ha
  SAGPY herbicidal effect rating: 6.0
CYPIR (Rice Flatsedge); Rate 0.0313 kg/ha, rated 3 to 4 weeks after treatment
  Herbicidal rating CYPIR: 5.0
CYPIR (Rice Flatsedge); Rate 0.0625 kg/ha, rated 3 to 4 weeks after treatment
  Herbicidal rating CYPIR: 5.0
CYPIR (Rice Flatsedge); Rate 0.1250 kg/ha, rated 3 to 4 weeks after treatment
  Herbicidal rating CYPIR: 5.0
CYPIR (Rice Flatsedge); Rate 0.2500 kg/ha, rated 3 to 4 weeks after treatment
  Herbicidal rating CYPIR: 8.0

## COC(=O)CCCN1C(=O)CSC1=Nc1cc(-n2c(=O)cc(C(F)(F)F)n(C)c2=O)c(F)cc1Cl [Compound 29, Methyl 2-{{2-chloro-5-[3,6-dihydro-3-methyl-2,6-dioxo-4-(trifluoromethyl)-1(2H)-pyrimidinyl]-4-fluorophenyl}imino}-4-oxo-3-thiazolidinebutyrate]
AMBEL (Ragweed, Common); Rate 0.0158 kg/ha
  Postemergence herbicidal rating AMBEL: 1.0
AMBEL (Ragweed, Common); Rate 0.0315 kg/ha
  Postemergence herbicidal rating AMBEL: 4.0
AMBEL (Ragweed, Common); Rate 0.0630 kg/ha
  Postemergence herbicidal rating AMBEL: 9.0
CASOB (Sicklepod) [1]; Rate 0.0158 kg/ha
  Postemergence herbicidal rating CASOB: 0.0
CASOB (Sicklepod) [1]; Rate 0.0315 kg/ha
  Postemergence herbicidal rating CASOB: 0.0
CASOB (Sicklepod) [1]; Rate 0.0630 kg/ha
  Postemergence herbicidal rating CASOB: 0.0
GALAP (Galium); Rate 0.0158 kg/ha
  Postemergence herbicidal rating GALAP: 1.0
GALAP (Galium); Rate 0.0315 kg/ha
  Postemergence herbicidal rating GALAP: 1.0
GALAP (Galium); Rate 0.0630 kg/ha
  Postemergence herbicidal rating GALAP: 7.0
[2]; Rate 0.0158 kg/ha
  Postemergence herbicidal rating IPOHE: 3.0
[2]; Rate 0.0315 kg/ha
  Postemergence herbicidal rating IPOHE: 9.0
[2]; Rate 0.0630 kg/ha
  Postemergence herbicidal rating IPOHE: 9.0
ABUTH (Velvetleaf); rate 0.0625 kg/ha
  Preemergence herbicidal rating ABUTH: 9.0
ABUTH (Velvetleaf); rate 0.1250 kg/ha
  Preemergence herbicidal rating ABUTH: 9.0
ABUTH (Velvetleaf); rate 0.2500 kg/ha
  Preemergence herbicidal rating ABUTH: 9.0
CASOB (Sicklepod) [3]; rate 0.0625 kg/ha
  Preemergence herbicidal rating CASOB: 0.0
CASOB (Sicklepod) [3]; rate 0.1250 kg/ha
  Preemergence herbicidal rating CASOB: 0.0
CASOB (Sicklepod) [3]; rate 0.2500 kg/ha
  Preemergence herbicidal rating CASOB: 0.0
[4]; rate 0.0625 kg/ha
  Preemergence herbicidal rating IPOHE: 0.0
[4]; rate 0.1250 kg/ha
  Preemergence herbicidal rating IPOHE: 0.0
[4]; rate 0.2500 kg/ha
  Preemergence herbicidal rating IPOHE: 4.0
ECHCG (Barnyardgrass); rate 0.0625 kg/ha
  Preemergence herbicidal rating ECHCG: 0.0
ECHCG (Barnyardgrass); rate 0.1250 kg/ha
  Preemergence herbicidal rating ECHCG: 0.0
ECHCG (Barnyardgrass); rate 0.2500 kg/ha
  Preemergence herbicidal rating ECHCG: 0.0
[5]; rate 0.0625 kg/ha
  Preemergence herbicidal rating GLXMAW: 0.0
[5]; rate 0.1250 kg/ha
  Preemergence herbicidal rating GLXMAW: 0.0
[5]; rate 0.2500 kg/ha
  Preemergence herbicidal rating GLXMAW: 2.0
[6]; rate 0.0625 kg/ha
  Preemergence herbicidal rating TRZAWR: 0.0
[6]; rate 0.1250 kg/ha
  Preemergence herbicidal rating TRZAWR: 0.0
[6]; rate 0.2500 kg/ha
  Preemergence herbicidal rating TRZAWR: 4.0
ZEAMX (Corn, Field); rate 0.0625 kg/ha
  Preemergence herbicidal rating ZEAMX: 0.0
ZEAMX (Corn, Field); rate 0.1250 kg/ha
  Preemergence herbicidal rating ZEAMX: 0.0
ZEAMX (Corn, Field); rate 0.2500 kg/ha
  Preemergence herbicidal rating ZEAMX: 6.0
MOOVA (Monochoria); 0.0313 kg/ha
  Herbicidal rating MOOVA: 0.0
MOOVA (Monochoria); 0.0625 kg/ha
  Herbicidal rating MOOVA: 0.0
MOOVA (Monochoria); 0.1250 kg/ha
  Herbicidal rating MOOVA: 0.0
MOOVA (Monochoria); 0.2500 kg/ha
  Herbicidal rating MOOVA: 0.0
[7]; 0.0313 kg/ha
  Herbicidal rating SAGPY: 0.0
[7]; 0.0625 kg/ha
  Herbicidal rating SAGPY: 0.0
[7]; 0.1250 kg/ha
  Herbicidal rating SAGPY: 0.0
[7]; 0.2500 kg/ha
  Herbicidal rating SAGPY: 0.0
CYPIR (Rice Flatsedge); rate 0.0313 kg/ha, 3-4 weeks after treatment
  Herbicidal rating CYPIR: 0.0
CYPIR (Rice Flatsedge); rate 0.0625 kg/ha, 3-4 weeks after treatment
  Herbicidal rating CYPIR: 0.0
CYPIR (Rice Flatsedge); rate 0.1250 kg/ha, 3-4 weeks after treatment
  Herbicidal rating CYPIR: 0.0
CYPIR (Rice Flatsedge); rate 0.2500 kg/ha, 3-4 weeks after treatment
  Herbicidal rating CYPIR: 0.0
